Patent publication US9101628B2, “Methods and composition of treating a flaviviridae family viral infection” (The Board of Trustees of the Leland Stanford Junior …, priority 2007, dated 2015)

Tested on: HCV RNA replication
Test: RNA replication inhibition assay (luciferase reporter-linked HCV genome)
Conditions: Hepatitis C virus, percentage of untreated control population; for activity at 5 µM: read-out: Residual Luciferase activity, 5 micromolar; for activity at 10 µM: read-out: Residual Luciferase activity, 10 micromolar

Oc1ccc2ncn(Cc3ccc(Cl)cc3)c2c1 [Compound 61]
activity at 5 µM: > 80%
activity at 10 µM: < 80%

Clc1ccccc1Cn1c(CN2CCCC2)nc2ccccc21 [Compound 19]
activity at 5 µM: > 80%
activity at 10 µM: > 80%

CC(C)c1nc2ccccc2n1Cc1ccc(Cl)cc1 [Compound 119]
activity at 5 µM: < 80%
activity at 10 µM: < 55%

Cc1cc2c(ncn2Cc2ccc(Cl)cc2)c(NS(=O)(=O)c2cccc(Cl)c2)c1C [Compound 82]
activity at 5 µM: > 80%
activity at 10 µM: > 80%

Clc1ccc(Cn2c(CN3CCCC3)nc3ccccc32)s1 [Compound 32]
activity at 5 µM: < 80%
activity at 10 µM: < 80%

CS(=O)(=O)c1ccc2c(c1)nc(C(F)(F)F)n2Cc1ccccc1 [Compound 150]
activity at 5 µM: < 80%
activity at 10 µM: < 55%

O=C(O)c1ccc2ncn(Cc3ccc(Cl)cc3)c2c1 [Compound 45]
activity at 5 µM: > 80%
activity at 10 µM: > 80%

Cc1ccc(Cn2c(CN3CCCC3)nc3ccccc32)cc1 [Compound 40]
activity at 5 µM: < 80%
activity at 10 µM: < 80%

O=C(O)c1cccc(Cn2c(CN3CCCC3)nc3ccccc32)c1 [Compound 17]
activity at 5 µM: > 80%
activity at 10 µM: > 80%

Cc1cccc(Cn2cnc3c(NS(=O)(=O)c4ccc(F)cc4)c(C)c(C)cc32)c1 [Compound 80]
activity at 5 µM: < 55%
activity at 10 µM: < 80%

Fc1cc2ncn(Cc3ccc(Cl)cc3)c2cc1F [Compound 94]
activity at 5 µM: < 80%
activity at 10 µM: < 55%

Cc1cccc(Cn2cnc3c(NS(C)(=O)=O)c(C)c(C)cc32)c1 [Compound 75]
activity at 5 µM: > 80%
activity at 10 µM: < 80%

CCCCCc1nc2ccccc2n1Cc1ccc(Cl)cc1 [Compound 116]
activity at 5 µM: < 55%
activity at 10 µM: < 20%

CCn1c(CNC=O)nc2ccccc21 [Compound 114]
activity at 5 µM: > 80%
activity at 10 µM: > 80%

Clc1ccc(Cn2c(Cc3ccccc3)nc3ccccc32)cc1 [Compound 120]
activity at 5 µM: < 80%
activity at 10 µM: < 55%

CCCN(CCC)Cc1nc2ccccc2n1Cc1ccc(Cl)cc1 [Compound 5]
activity at 5 µM: < 80%
activity at 10 µM: < 55%

FC(F)Oc1ccc(Cn2c(CN3CCCC3)nc3ccccc32)cc1 [Compound 42]
activity at 5 µM: > 80%
activity at 10 µM: < 80%

c1ccc2c(c1)nc(CN1CCCC1)n2CC1CCCCC1 [Compound 22]
activity at 5 µM: > 80%
activity at 10 µM: < 80%

Clc1ccc(Cn2c(CN3CCCCCC3)nc3ccccc32)cc1 [Compound 27]
activity at 5 µM: < 80%
activity at 10 µM: < 55%

OC[C@H]1CCCN1Cc1nc2ccccc2n1Cc1ccc(Cl)cc1 [Compound 95]
activity at 5 µM: > 80%
activity at 10 µM: < 80%

COC(=O)c1ccc(Cn2c(CN3CCCC3)nc3ccccc32)cc1 [Compound 14]
activity at 5 µM: < 80%
activity at 10 µM: < 80%

CS(=O)(=O)c1ccc2c(c1)nc(S)n2Cc1ccccc1 [Compound 152]
activity at 5 µM: < 80%
activity at 10 µM: < 55%

Cc1cc2nc(-c3ccc(=O)[nH]c3)n(Cc3ccc(Cl)cc3)c2cc1C [Compound 159]
activity at 5 µM: < 80%
activity at 10 µM: < 55%

CCCCNC(=O)Nc1c(C)c(C)cc2c1ncn2Cc1ccc(Cl)cc1 [Compound 72]
activity at 5 µM: > 80%
activity at 10 µM: > 80%

CC(=O)N1CCC(Cn2c(CN3CCCC3)nc3ccccc32)CC1 [Compound 37]
activity at 5 µM: < 80%
activity at 10 µM: > 80%

CCCS(=O)(=O)c1nc2ccccc2n1Cc1ccc(Cl)cc1 [Compound 99]
activity at 5 µM: < 20%
activity at 10 µM: < 20%

Cc1cc2nc([C@@H](C)C3CCC[C@H]3CO)n(Cc3ccc(Cl)cc3)c2cc1C (stereo partly shown) [Compound 90]
activity at 5 µM: < 80%
activity at 10 µM: < 55%

Cc1cc2ncn(Cc3ccccc3)c2cc1C [Compound 128]
activity at 5 µM: < 55%
activity at 10 µM: < 55%

Oc1ccc(Cn2cnc3ccccc32)cc1 [Compound 143]
activity at 5 µM: > 80%
activity at 10 µM: < 80%

Cc1cc2nc(C(C)N3CCCC3)n(Cc3ccc(Cl)cc3)c2cc1C (stereo not shown) [Compound 88]
activity at 5 µM: < 55%
activity at 10 µM: < 20%

CS(=O)(=O)c1ccc2c(c1)ncn2Cc1ccccc1 [Compound 149]
activity at 5 µM: > 80%
activity at 10 µM: > 80%

Cc1ccc2c(nc(CN3CCCC3=O)n2Cc2ccc(Cl)cc2)c1C [Compound 33]
activity at 5 µM: > 80%
activity at 10 µM: > 80%

Clc1ccc(Cn2cnc3cc(Cl)ccc32)cc1 [Compound 58]
activity at 5 µM: < 80%

Cc1cc2c(ncn2Cc2ccc(Cl)cc2)c(N)c1C [Compound 67]
activity at 5 µM: < 80%
activity at 10 µM: < 80%

Clc1ccc(Cn2c(Cc3ccccc3)nc3ccccc32)c(Cl)c1 [Compound 122]
activity at 5 µM: < 55%
activity at 10 µM: < 55%

Cc1cc2nc(CN3CCCC3=O)n(Cc3ccc(Cl)cc3)c2cc1C [Compound 63]
activity at 5 µM: < 80%
activity at 10 µM: > 80%

CC(C)c1ccc(Cn2c(CN3CCCC3)nc3ccccc32)cc1 [Compound 41]
activity at 5 µM: < 80%
activity at 10 µM: < 80%

Clc1ccc(Cn2ccc3cc(Cl)cnc32)cc1 [Compound 100]
activity at 5 µM: > 80%
activity at 10 µM: < 80%

Cc1cc2ncn(Cc3ccc(F)cc3)c2cc1C [Compound 129]
activity at 5 µM: > 80%
activity at 10 µM: > 80%

COc1ccc(Cn2cnc3ccccc32)cc1OC [Compound 140]
activity at 5 µM: < 20%
activity at 10 µM: < 55%

CC(=O)Nc1c(C)c(C)cc2c1ncn2Cc1ccc(Cl)cc1 [Compound 68]
activity at 5 µM: > 80%
activity at 10 µM: > 80%

COCC1CCCN1Cc1nc2cc(C)ccc2n1Cc1ccc(Cl)cc1 (stereo not shown) [Compound 29]
activity at 5 µM: > 80%
activity at 10 µM: < 55%

Cc1cc2nc(CN3CCCC3c3ccccn3)n(Cc3ccc(Cl)cc3)c2cc1C (stereo not shown) [Compound 51]
activity at 5 µM: < 20%
activity at 10 µM: < 20%

Cc1cc2nc(CN3CCC[C@H]3CO)n(Cc3ccc(Cl)cc3)c2cc1C [Compound 47]
activity at 5 µM: < 80%
activity at 10 µM: < 80%

Cc1ccc(Cn2cnc3ccccc32)cc1 [Compound 142]
activity at 10 µM: < 55%

CCCCc1nc2ccccc2n1Cc1ccc(Cl)cc1 [Compound 117]
activity at 5 µM: < 20%
activity at 10 µM: < 20%

CCC(=O)NCc1nc2ccccc2[nH]1 [Compound 113]
activity at 5 µM: > 80%
activity at 10 µM: > 80%

Cc1cc2nc(CN3CCC[C@@H]3C)n(Cc3ccc(Cl)cc3)c2cc1C [Compound 97]
activity at 5 µM: < 55%
activity at 10 µM: < 20%

COCC1CCCN1Cc1nc2c(C)c(C)ccc2n1Cc1ccc(Cl)cc1 (stereo not shown) [Compound 31]
activity at 5 µM: < 80%
activity at 10 µM: < 55%

O[C@@H]1CCN(Cc2nc3ccccc3n2Cc2ccc(Cl)cc2)C1 [Compound 24]
activity at 5 µM: > 80%
activity at 10 µM: > 80%

O=C(Cc1ccccc1)NCCCc1nc2ccccc2n1Cc1ccc(Cl)cc1 [Compound 111]
activity at 5 µM: < 55%
activity at 10 µM: < 20%

Cc1cc2nc([C@H](C)N3CCC[C@H]3CO)n(Cc3ccc(Cl)cc3)c2cc1C [Compound 89]
activity at 5 µM: < 55%
activity at 10 µM: < 55%

CCOC(=O)CSc1nc2cc(S(C)(=O)=O)ccc2n1Cc1ccccc1 [Compound 153]
activity at 5 µM: > 80%
activity at 10 µM: < 80%

Nc1nc2ccccc2n1C(=O)c1ccc(Cl)cc1 [Compound 133]
activity at 5 µM: > 80%
activity at 10 µM: < 55%

O=C1CCCN1Cc1nc2ccccc2n1Cc1ccc(Cl)cc1 [Compound 12]
activity at 5 µM: < 80%
activity at 10 µM: < 80%

Cc1ccc(Cn2c(C)nc3cc(C)c(C)cc32)cc1 [Compound 155]
activity at 5 µM: < 55%
activity at 10 µM: < 20%

Clc1ccc(Cn2cnc3cc4c(cc32)OCCO4)cc1 [Compound 64]
activity at 5 µM: < 80%
activity at 10 µM: < 80%

Clc1ccc(Cn2cnc3ccncc32)cc1 [Compound 83]
activity at 5 µM: < 80%
activity at 10 µM: < 80%

N#Cc1cnc2ccn(Cc3ccc(Cl)cc3)c2c1 [Compound 105]
activity at 5 µM: > 80%
activity at 10 µM: > 80%

CS(=O)(=O)N1CCCC(Cn2c(CN3CCCC3)nc3ccccc32)C1 (stereo not shown) [Compound 35]
activity at 5 µM: > 80%
activity at 10 µM: > 80%

CC1CCC(C)N1Cc1nc2ccccc2n1Cc1ccc(Cl)cc1 (stereo not shown) [Compound 26]
activity at 5 µM: > 80%
activity at 10 µM: > 80%

Cc1nc2cc(Cl)ccc2n1Cc1ccccc1 [Compound 125]
activity at 5 µM: < 80%

CC(=O)N(C)Cc1nc2ccccc2n1Cc1ccc(Cl)cc1Cl [Compound 126]
activity at 5 µM: < 80%
activity at 10 µM: < 55%

c1ccc2c(c1)nc(CN1CCCC1)n2CC1CCCNC1 (stereo not shown) [Compound 39]
activity at 5 µM: < 80%
activity at 10 µM: < 80%

Cc1cc2c(ncn2Cc2ccc(Cl)cc2)c(NC(=O)c2ccccc2)c1C [Compound 71]
activity at 5 µM: > 80%
activity at 10 µM: > 80%

O=C(O)c1ccc2c(c1)ncn2Cc1ccc(Cl)cc1 [Compound 44]
activity at 5 µM: < 80%
activity at 10 µM: > 80%

Cc1cc2nc([C@@H](C)N3CCC[C@@H]3CO)n(Cc3ccc(Cl)cc3)c2cc1C [Compound 92]
activity at 5 µM: < 55%
activity at 10 µM: < 20%

Brc1ccc(Cn2cnc3ccccc32)cc1 [Compound 134]
activity at 5 µM: < 55%
activity at 10 µM: < 20%

Cc1ccc2c(c1)nc(CN1CCCC1)n2Cc1ccc(Cl)cc1 [Compound 28]
activity at 5 µM: > 80%
activity at 10 µM: < 55%

Cc1cc2nc(CC3CCCC3)n(Cc3ccc(Cl)cc3)c2cc1C [Compound 96]
activity at 5 µM: < 80%
activity at 10 µM: < 55%

N#Cc1ccc2c(ccn2Cc2ccc(Cl)cc2)n1 [Compound 104]
activity at 5 µM: < 55%
activity at 10 µM: < 55%

Cc1cc2nc(CN3CCCC3)n(Cc3ccc(Cl)cc3)c2cc1C [Compound 156]
activity at 5 µM: < 80%
activity at 10 µM: < 55%

O=C(O)c1ccc(Cn2c(CN3CCCC3)nc3ccccc32)cc1 [Compound 15]
activity at 5 µM: > 80%
activity at 10 µM: > 80%

Cc1cc2nc([C@H](C)N3CCC[C@@H]3CO)n(Cc3ccc(Cl)cc3)c2cc1C [Compound 91]
activity at 5 µM: > 80%
activity at 10 µM: > 80%
